Measurements reported in patent US20100093702A1, “METHYLENE AMINES OF THIENO[2,3-d]PYRIMIDINE AND THEIR USE AS ADENOSINE A2a RECEPTOR ANTAGONISTS” (priority 2008, published 2010).

Columns and labels:
[1] = target: T1, human A2a adenosine receptor (Homo sapiens, UniProt P29274); test: Ligand Binding Assay for Adenosine A2a Receptor (A2A-B); conditions: HEK293 plasma membrane, radioligand [3H]CGS21680
T1 construct: purchased PerkinElmer RB-HA2a; host or cells: HEK293
Procedure: Ligand Binding Assay for Adenosine A2a Receptor
Ligand binding assay of adenosine A2a receptor was performed using plasma membrane of HEK293 cells containing human A2a adenosine receptor (PerkinElmer, RB-HA2a) and radioligand [^3H]CGS21680 (PerkinElmer, NET 1021). Assay was set up in 96-well polypropylene plate in total volume of 200 μL by sequentially adding 20 μL 1:20 diluted membrane, 130 μL assay buffer (50 mM Tris.HCl, pH7.4 10 mM MgCl2, 1 mM EDTA) containing [^3H] CGS21680, 50 μL diluted compound (4×) or vehicle control in assay buffer. Nonspecific binding was determined by […] NECA. Reaction was carried out at room temperature for 2 hours before filtering through 96-well GF/C filter plate pre-soaked in 50 mM Tris.HCl, pH7.4 containing 0.3% polyethylenimine. Plates were then washed 5 times with cold 50 mM Tris.HCl, pH7.4, dried and sealed at the bottom. Microscintillation fluid 30 μL was added to each well and the top sealed. Plates were counted on Packard Topcount for [^3H]. Data was analyzed in Microsoft Excel and GraphPad Prism programs. (Varani, K.; Gessi, S.; Dalpiaz, A.; Borea, P. A. British Journal of Pharmacology, 1996, 117, 1693)

[2] = target: T2, human adenosine A2a receptor (Homo sapiens, UniProt P29274); test: Adenosine A2a Receptor Functional Assay (A2AGAL2); assay type: cell-based; conditions: CHO-K1 cells, cAMP inducible beta-galactosidase reporter, 15 nM NECA agonist challenge
T2 construct: expressed in transfected cells; host or cells: CHO-K1
Procedure: Adenosine A2a Receptor Functional Assay (A2AGAL2)
To initiate the functional assay, cryopreserved CHO-K1 cells overexpressing the human adenosine A2a receptor and containing a cAMP inducible beta-galactosidase reporter gene were thawed, centrifuged, DMSO containing media removed, and then seeded with fresh culture media into clear 384-well tissue culture treated plates (BD #353961) at a concentration of 10K cells/well. Prior to assay, these plates were cultured for two days at 37° C., 5% CO2, 90% Rh. On the day of the functional assay, culture media was removed and replaced with 45 uL assay medium (Hams/F-12 Modified (Mediatech # 10-080CV) supplemented w/0.1% BSA). Test compounds were diluted and 11 point curves created at a 1000× concentration in 100% DMSO. Immediately after addition of assay media to the cell plates, 50 nL of the appropriate test compound antagonist or agonist control curves were added to cell plates using a Cartesian Hummingbird. Compound curves were allowed to incubate at room temperature on cell plates for approximately 15 minutes before addition of a 15 nM NECA (Sigma E2387) agonist challenge (5 uL volume). A control curve of NECA, a DMSO/Media control, and a single dose of Forskolin (Sigma F3917) were also included on each plate. After additions, cell plates were allowed to incubate at 37° C., 5% CO2, 90% Rh for 5.5-6 hours. After incubation, media was removed, and cell plates were washed 1×50 uL with DPBS w/o Ca & Mg (Mediatech 21-031-CV). Into dry wells, 20 uL of 1× Reporter Lysis Buffer (Promega E3971 (diluted in dH2O from 5× stock)) was added to each well and plates frozen at −20° C. overnight. For β-galactosidase enzyme calorimetric assay, plates were thawed out at room temperature and 20 μL 2× assay buffer (Promega) was added to each well. Color was allowed to develop at 37° C., 5% CO2, 90% Rh for 1-1.5 h or until reasonable signal appeared. The calorimetric reaction was stopped with the addition of 60 μL/well 1M sodium carbonate. Plates were counted at 405 nm on a SpectraMax Microplate Reader (Molecular Devices). Data was analyzed in Microsoft Excel and IC/EC50 curves were fit using a standardized macro.

[3] = target: T3, human adenosine A1 receptor (Homo sapiens, UniProt P30542); test: Adenosine A1 Receptor Functional Assay (A1GAL2); assay type: cell-based; conditions: CHO-K1 cells, cAMP inducible beta-galactosidase reporter, 4 nM r-PIA/1 uM Forskolin challenge
T3 construct: expressed in transfected cells; host or cells: CHO-K1
T3 sequence (P30542 1-326): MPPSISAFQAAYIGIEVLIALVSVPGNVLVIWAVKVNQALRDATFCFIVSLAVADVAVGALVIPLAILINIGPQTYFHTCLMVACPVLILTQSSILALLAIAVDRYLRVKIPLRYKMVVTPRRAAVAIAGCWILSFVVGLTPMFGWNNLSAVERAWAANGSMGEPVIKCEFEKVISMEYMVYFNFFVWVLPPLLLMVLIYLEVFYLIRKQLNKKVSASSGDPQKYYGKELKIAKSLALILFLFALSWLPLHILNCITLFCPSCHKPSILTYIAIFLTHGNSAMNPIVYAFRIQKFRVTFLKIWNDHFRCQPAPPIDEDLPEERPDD
Procedure: Adenosine A1 Receptor Functional Assay (A1GAL2)
To initiate the functional assay, cryopreserved CHO-K1 cells overexpressing the human adenosine A1 receptor and containing a cAMP inducible beta-galactosidase reporter gene were thawed, centrifuged, DMSO containing media removed, and then seeded with fresh culture media into clear 384-well tissue culture treated plates (BD #353961) at a concentration of 10K cells/well. Prior to assay, these plates were cultured for two days at 37° C., 5% CO2, 90% Rh. On the day of the functional assay, culture media was removed and replaced with 45 uL assay medium (Hams/F-12 Modified (Mediatech # 10-080CV) supplemented w/0.1% BSA). Test compounds were diluted and 11 point curves created at a 1000× concentration in 100% DMSO. Immediately after addition of assay media to the cell plates, […] of the appropriate test compound antagonist or agonist control curves were added to cell plates using a Cartesian Hummingbird. Compound curves were allowed to incubate at room temperature on cell plates for approximately 15 minutes before addition of a 4 nM r-PIA (Sigma P4532)/1 uM Forskolin (Sigma F3917) agonist challenge (5 uL volume). A control curve of r-PIA in 1 uM Forskolin, a DMSO/Media control, and a single dose of Forskolin were also included on each plate. After additions, cell plates were allowed to incubate at 37° C., 5% CO2, 90% Rh for 5.5-6 hours. After incubation, media was removed, and cell plates were washed 1×50 uL with DPBS w/o Ca & Mg (Mediatech 21-031-CV).
Into dry wells, 20 uL of 1× Reporter Lysis Buffer (Promega E3971 (diluted in dH2O from 5× stock)) was added to each well and plates frozen at −20° C. overnight. For β-galactosidase enzyme calorimetric assay, plates were thawed out at room temperature and 20 μL 2× assay buffer (Promega) was added to each well. Color was allowed to develop at 37° C., 5% CO2, 90% Rh for 1-1.5 h or until reasonable signal appeared. The calorimetric reaction was stopped with the addition of 60 μL/well 1M sodium carbonate. Plates were counted at 405 nm on a SpectraMax Microplate Reader (Molecular Devices). Data was analyzed in Microsoft Excel and IC/EC50 curves were fit using a standardized macro.

T2 sequence (P29274 whole entry): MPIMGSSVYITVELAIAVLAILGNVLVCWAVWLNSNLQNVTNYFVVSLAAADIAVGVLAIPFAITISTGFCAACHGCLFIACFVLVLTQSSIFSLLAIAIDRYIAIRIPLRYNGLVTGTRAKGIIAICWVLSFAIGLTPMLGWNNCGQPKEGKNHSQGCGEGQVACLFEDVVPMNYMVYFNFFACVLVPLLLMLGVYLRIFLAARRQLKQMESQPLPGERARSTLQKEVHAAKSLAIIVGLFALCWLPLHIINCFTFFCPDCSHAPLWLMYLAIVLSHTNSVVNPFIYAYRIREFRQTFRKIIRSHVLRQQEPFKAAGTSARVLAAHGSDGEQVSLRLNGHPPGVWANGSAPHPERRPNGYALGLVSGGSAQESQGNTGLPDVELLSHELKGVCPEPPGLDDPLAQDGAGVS
T1 sequence (P29274 whole entry): as above

Structure (SMILES)	Ki [1] [nM]	Ki [2] [nM]	Ki [3] [nM]
Nc1nc(-c2cccs2)nc2sc(CN3CCOCC3)cc12 [Example 26, 6-Morpholin-4-ylmethyl-2-thiophen-2-yl-thieno[2,3-d]pyrimidin-4-ylamine]	207	–	–
Nc1nc(-c2cc3ccccc3o2)nc2sc(CN3CCC(F)CC3)cc12 [Example 59, 2-Benzofuran-2-yl-6-(4-fluoropiperidin-1-ylmethyl)thieno[2,3-d]pyrimidin-4-ylamine]	–	348	634
Nc1nc(-c2cccc(F)c2)nc2sc(CN3CCC(F)CC3)cc12 [Example 60, 2-(3-Fluoro-phenyl)-6-(4-fluoro-piperidin-1-ylmethyl)-thieno[2,3-d]pyrimidin-4-ylamine]	–	300	1250
Nc1nc(-c2cccc(F)c2)nc2sc(CN3CCOCC3)cc12 [Example 61, 2-(3-Fluoro-phenyl)-6-morpholin-4-ylmethyl-thieno[2,3-d]pyrimidin-4-ylamine]	–	123	616
N#Cc1ccc(-c2nc(N)c3cc(CN4CCC(F)CC4)sc3n2)cc1 [Example 66, 4-[4-Amino-6-(4-fluoro-piperidin-1-ylmethyl)-thieno[2,3-d]pyrimidin-2-yl]-benzonitrile]	–	1390	8430
N#Cc1ccc(-c2nc(N)c3cc(CN4CCCCCC4)sc3n2)cc1 [Example 67, 4-(4-Amino-6-azepan-1-ylmethyl-thieno[2,3-d]pyrimidin-2-yl)-benzonitrile]	–	384	8550
COc1cccc(-c2nc(N)c3cc(CN4CCC(F)CC4)sc3n2)c1 [Example 71, 6-(4-Fluoro-piperidin-1-ylmethyl)-2-(3-methoxy-phenyl)-thieno[2,3-d]pyrimidin-4-ylamine]	–	303	3220
N#Cc1ccc(-c2nc(N)c3cc(CN4CCC(F)CC4)sc3n2)s1 [Example 72, 5-[4-Amino-6-(4-fluoro-piperidin-1-ylmethyl)-thieno[2,3-d]pyrimidin-2-yl]-thiophene-2-carbonitrile]	–	91.3	1910
Nc1nc(-c2ncco2)nc2sc(CN3CCOCC3)cc12 [Example 75, 6-Morpholin-4-ylmethyl-2-oxazol-2-yl-thieno[2,3-d]pyrimidin-4-ylamine]	–	356	3250
Nc1nc(-c2ccc3c(c2)OCO3)nc2sc(CN3CCC(F)CC3)cc12 [Example 76, 2-Benzo[1,3]dioxol-5-yl-6-(4-fluoro-piperidin-1-ylmethyl)-thieno[2,3-d]pyrimidin-4-ylamine]	–	209	740
Nc1nc(-c2ccc[nH]2)nc2sc(CN3CCC(F)CC3)cc12 [Example 81, 6-(4-Fluoro-piperidin-1-ylmethyl)-2-(1H-pyrrol-2-yl)-thieno[2,3-d]pyrimidin-4-ylamine]	–	795	3890
COc1cccc(-c2nc(N)c3cc(CN4CCOCC4)sc3n2)c1 [Example 84, 2-(3-Methoxy-phenyl)-6-morpholin-4-ylmethyl-thieno[2,3-d]pyrimidin-4-ylamine]	–	373	2990
N#Cc1cncc(-c2nc(N)c3cc(CN4CCC(F)CC4)sc3n2)c1 [Example 87, 5-[4-Amino-6-(4-fluoro-piperidin-1-ylmethyl)-thieno[2,3-d]pyrimidin-2-yl]-nicotinonitrile]	–	6620	> 10000
Nc1nc(-c2ccco2)nc2sc(CN3CCC(F)(F)C3)cc12 [Example 94, 6-(3,3-Difluoro-pyrrolidin-1-ylmethyl)-2-furan-2-yl-thieno[2,3-d]pyrimidin-4-ylamine]	–	8.23	1240
Nc1nc(-c2ccc(C(F)F)o2)nc2sc(CN3CCC(F)(F)CC3)cc12 [Example 99, 2-(5-Difluoromethyl-furan-2-yl)-6-(4,4-difluoro-piperidin-1-ylmethyl)-thieno[2,3-d]pyrimidin-4-ylamine]	–	610	17800
Nc1nc(-c2ccc(C(F)F)o2)nc2sc(CN3CCC(F)CC3)cc12 [Example 100, 2-(5-Difluoromethyl-furan-2-yl)-6-(4-fluoro-piperidin-1-ylmethyl)-thieno[2,3-d]pyrimidin-4-ylamine]	–	42.4	1670
Nc1nc(-c2ccc(C(F)F)o2)nc2sc(CN3CCCC(F)(F)C3)cc12 [Example 101, 2-(5-Difluoromethyl-furan-2-yl)-6-(3,3-difluoro-piperidin-1-ylmethyl)-thieno[2,3-d]pyrimidin-4-ylamine]	–	42.5	2100
C[C@@H]1CCC[C@H](C)N1Cc1cc2c(N)nc(-c3ccc(C(F)F)o3)nc2s1 [Example 102, 2-(5-Difluoromethyl-furan-2-yl)-6-(2,6-dimethyl-piperidin-1-ylmethyl)-thieno[2,3-d]pyrimidin-4-ylamine]	–	27.6	732
CCN(CC)Cc1cc2c(N)nc(-c3ccc(C(F)F)o3)nc2s1 [Example 103, 6-Diethylaminomethyl-2-(5-difluoromethyl-furan-2-yl)-thieno[2,3-d]pyrimidin-4-ylamine]	–	131	2090
Nc1nc(-c2ccnc(Cl)c2)nc2sc(CN3CCCCC3)cc12 [Example 104, 2-(2-Chloro-pyridin-4-yl)-6-piperidin-1-ylmethyl-thieno[2,3-d]pyrimidin-4-ylamine]	–	691	3860
Nc1nc(-c2cccc(O)c2)nc2sc(CN3CCOCC3)cc12 [Example 106, 3-(4-Amino-6-morpholin-4-ylmethyl-thieno[2,3-d]pyrimidin-2-yl)-phenol]	–	816	2440
